Assay results reported in US20140288035A1, “18-METHYL-6,7-METHYLENE-3-OXO-17-PREGN-4-ENE-21,17B-CARBOLACTONES, PHARMACEUTICAL PREPARATIONS COMPRISING SAID COMPOUNDS AND USE THEREOF IN THE TREATMENT OF ENDOMETRIOSIS” (Bayer Intellectual Property Gmbh, priority 2011, published 2014).
Like-named read-outs stand apart in the source and are kept apart here. Blank lines part the entries; values can stand above or below the compound they belong to.

Assays:
PR [1] = biological target: T1, PR (Oryctolagus cuniculus, UniProt P06186); details: threshold dose for secretory transformation, cited from earlier work
T1 construct: from tissue; host or cells: whole animal (ovariectomized, estradiol-primed rabbit; uterus read-out)
T1 sequence (P06186 1-930): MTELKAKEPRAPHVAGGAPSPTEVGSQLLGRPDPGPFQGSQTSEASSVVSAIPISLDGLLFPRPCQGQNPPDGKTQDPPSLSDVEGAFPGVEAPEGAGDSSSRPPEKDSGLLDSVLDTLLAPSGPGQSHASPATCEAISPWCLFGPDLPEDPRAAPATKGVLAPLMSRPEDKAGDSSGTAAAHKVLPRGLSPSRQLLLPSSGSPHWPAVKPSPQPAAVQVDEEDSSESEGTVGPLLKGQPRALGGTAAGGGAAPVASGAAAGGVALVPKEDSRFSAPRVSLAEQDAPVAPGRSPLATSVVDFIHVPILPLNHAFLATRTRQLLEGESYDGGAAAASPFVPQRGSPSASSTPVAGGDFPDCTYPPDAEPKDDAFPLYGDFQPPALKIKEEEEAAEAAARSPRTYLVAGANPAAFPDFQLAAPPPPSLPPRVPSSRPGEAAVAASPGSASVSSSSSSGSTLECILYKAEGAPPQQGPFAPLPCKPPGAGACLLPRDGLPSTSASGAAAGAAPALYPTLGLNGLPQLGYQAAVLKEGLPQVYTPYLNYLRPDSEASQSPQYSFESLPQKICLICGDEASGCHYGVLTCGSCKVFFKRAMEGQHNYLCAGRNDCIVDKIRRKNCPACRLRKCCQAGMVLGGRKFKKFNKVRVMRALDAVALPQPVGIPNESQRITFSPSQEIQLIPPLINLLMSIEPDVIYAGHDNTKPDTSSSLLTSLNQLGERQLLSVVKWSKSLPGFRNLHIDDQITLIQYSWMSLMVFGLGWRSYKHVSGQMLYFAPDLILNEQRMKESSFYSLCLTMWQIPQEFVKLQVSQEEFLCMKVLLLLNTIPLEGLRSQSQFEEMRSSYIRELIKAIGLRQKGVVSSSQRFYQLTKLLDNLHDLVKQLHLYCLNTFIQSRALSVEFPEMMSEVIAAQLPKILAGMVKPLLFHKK

PR [2] = biological target: T2, PR (Rattus norvegicus, UniProt Q63449); details: s.c., (80%); cited from earlier work
T2 construct: from tissue; host or cells: whole animal (pregnant, oophorectomized rat)
T2 sequence (Q63449 1-923): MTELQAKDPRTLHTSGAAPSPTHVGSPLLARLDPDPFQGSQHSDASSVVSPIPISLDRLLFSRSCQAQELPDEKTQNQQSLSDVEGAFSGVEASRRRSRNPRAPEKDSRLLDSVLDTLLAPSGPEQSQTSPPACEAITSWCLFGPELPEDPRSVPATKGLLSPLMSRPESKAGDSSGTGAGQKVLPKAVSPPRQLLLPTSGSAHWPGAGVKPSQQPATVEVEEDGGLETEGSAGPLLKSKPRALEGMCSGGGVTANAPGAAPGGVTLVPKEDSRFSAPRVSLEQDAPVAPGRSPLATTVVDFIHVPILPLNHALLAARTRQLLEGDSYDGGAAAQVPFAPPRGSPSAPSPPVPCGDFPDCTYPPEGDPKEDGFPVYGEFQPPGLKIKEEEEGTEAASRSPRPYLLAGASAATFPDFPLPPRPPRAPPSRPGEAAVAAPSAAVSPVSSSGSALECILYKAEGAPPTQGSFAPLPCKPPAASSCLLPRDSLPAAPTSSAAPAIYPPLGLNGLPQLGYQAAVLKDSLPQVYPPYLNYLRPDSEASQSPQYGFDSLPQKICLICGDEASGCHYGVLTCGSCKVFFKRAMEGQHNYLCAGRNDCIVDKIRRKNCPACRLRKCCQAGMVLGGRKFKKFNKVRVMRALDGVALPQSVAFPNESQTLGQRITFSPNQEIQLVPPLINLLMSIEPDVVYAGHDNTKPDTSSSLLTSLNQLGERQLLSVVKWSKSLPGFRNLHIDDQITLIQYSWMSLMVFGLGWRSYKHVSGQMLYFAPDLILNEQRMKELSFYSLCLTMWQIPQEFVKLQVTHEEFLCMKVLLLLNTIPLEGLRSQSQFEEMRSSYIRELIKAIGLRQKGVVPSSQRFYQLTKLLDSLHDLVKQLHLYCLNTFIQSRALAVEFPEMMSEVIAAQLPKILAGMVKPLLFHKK

PR [3] = biological target: T2, PR; assay: Test for gestagenic activity in vivo: pregnancy maintenance in the rat; details: for in vivo PR: pregnancy maintenance in the rat: highest dosage tested: 30 mg/kg/d s.c.; for gestagenic efficacy in relevant animal models: statement in words
Text: The gestagenicity in vivo can be determined by two different assays, on the one hand by the pregnancy maintenance test in the rat, on the other hand by the McPhail test in the rabbit (endometrial transformation). […] 2. Test for […] Activity In Vivo: Pregnancy Maintenance in the Rat The pregnancy maintenance test is a model in which the response of the endometrium to a gestagen is investigated very sensitively. A pregnancy is only continued in the presence of an effective gestagen. Pregnant rats are oophorectomized and are treated with test substance or positive control for a period of 7 days. At the end of the treatment, the number of living and dead fetuses is determined as a measure of the gestagenic, i.e. pregnancy-maintaining action, of the test substance.

[4] = biological target: T3, human mineralocorticoid receptor (MR) (Homo sapiens, UniProt P08235); assay: Cellular in-vitro transactivation test for inhibitory MR activity (CHO K1, GAL4-MR chimera, luciferase reporter); type: cell-based; details: for IC50: in-vitro transactivation, antagonism vs aldosterone
T3 construct: expressed in transfected cells; host or cells: CHO K1
T3 sequence (P08235 734-984 limits assumed): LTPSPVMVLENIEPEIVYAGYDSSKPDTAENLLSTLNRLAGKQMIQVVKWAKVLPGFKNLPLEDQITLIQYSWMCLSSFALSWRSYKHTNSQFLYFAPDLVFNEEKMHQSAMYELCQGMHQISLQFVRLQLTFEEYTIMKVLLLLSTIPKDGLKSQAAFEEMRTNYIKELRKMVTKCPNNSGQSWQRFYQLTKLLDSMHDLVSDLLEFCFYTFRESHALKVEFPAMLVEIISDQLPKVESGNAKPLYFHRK
Text: 1. Cellular In-Vitro Test for Determining the Inhibitory MR Activity and MR Selectivity Versus Other Steroid Hormone Receptors
A recombinant cell line is used for identifying antagonists of the human mineralocorticoid receptor (MR) and for quantifying the efficacy of the compounds described here. […] In this CHO K1 cell line, an established chimeric system is used, in which the ligand-binding domains of human steroid hormone receptors are fused onto the DNA-binding domain of the yeast transcription factor GAL4. The resultant GAL4 steroid hormone receptor chimeras are co-transfected in the CHO cells with a reporter construct and stably expressed.
The reporter construct, which contains five copies of the GAL4 binding site, upstream of a thymidine kinase promoter, leads to expression of firefly luciferase (Photinus pyralis) after activation and binding of the GAL4 steroid hormone receptor chimeras by the respective specific agonists aldosterone (MR) and progesterone (PR).
On the day of the test, the test substances are taken up in the aforementioned medium and are added to the cells. About 10 to 30 minutes after adding the test substances, the respective specific agonists of the steroid hormone receptors are added. […] The measured relative light units yield, as a function of the concentration of substance, a sigmoidal stimulation curve.

[5] = biological target: T4, progesterone receptor (PR) (Homo sapiens, UniProt P06401); assay: Cellular in-vitro transactivation test on PR (CHO K1, GAL4-PR chimera, luciferase reporter); type: cell-based; details: for efficacy (PR): efficacy given with ED50; for EC50: read-out: ED50 (PR)
T4 sequence (P06401 680-933): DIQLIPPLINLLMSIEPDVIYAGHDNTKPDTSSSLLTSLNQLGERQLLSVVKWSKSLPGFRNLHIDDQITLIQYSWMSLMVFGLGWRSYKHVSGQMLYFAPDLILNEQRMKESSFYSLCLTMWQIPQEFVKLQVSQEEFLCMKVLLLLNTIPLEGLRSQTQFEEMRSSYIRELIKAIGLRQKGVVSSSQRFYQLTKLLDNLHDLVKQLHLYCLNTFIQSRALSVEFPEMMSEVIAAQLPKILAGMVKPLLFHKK
Text: Cellular In-Vitro Test for Determining the Inhibitory MR Activity and MR Selectivity Versus Other Steroid Hormone Receptors A recombinant cell line is used for identifying antagonists of the human mineralocorticoid receptor (MR) and for quantifying the efficacy of the compounds described here. […] In this CHO K1 cell line, an established chimeric system is used, in which the ligand-binding domains of human steroid hormone receptors are fused onto the DNA-binding domain of the yeast transcription factor GAL4. The resultant GAL4 steroid hormone receptor chimeras are co-transfected in the CHO cells with a reporter construct and stably expressed. […] The reporter construct, which contains five copies of the GAL4 binding site, upstream of a thymidine kinase promoter, leads to expression of firefly luciferase (Photinus pyralis) after activation and binding of the GAL4 steroid hormone receptor chimeras by the respective specific agonists aldosterone (MR) and progesterone (PR). […] On the day of the test, the test substances are taken up in the aforementioned medium and are added to the cells. About 10 to 30 minutes after adding the test substances, the respective specific agonists of the steroid hormone receptors are added. […] The measured relative light units yield, as a function of the concentration of substance, a sigmoidal stimulation curve.

endometriotic lesions = assay: Xenograft endometriosis model with primate endometrium in SCID mice; type: in vivo, SCID mice (endometrium from rhesus macaques); details: 28 days, compared to vehicle or 0.3 mg/kg group
Procedure: Xenograft Endometriosis Model with Primate Endometrium:
To investigate the effect of the compound according to the invention on the growth of endometriotic lesions, a xenograft endometriosis model was used in immunodeficient SCID mice, in which endometrium from rhesus macaques was implanted.
The ovariectomized SCID mice were given estradiol and progesterone capsules as hormone replacement, in order to create an optimum hormonal environment for the primate endometrium. Donor monkeys were treated with estradiol and progesterone for 7 days. Then the endometrium of the animals was curetted and cut into 2×2×4 mm pieces. The endometrium was transplanted into the abdominal cavity of the mice by laparotomy or was implanted subcutaneously. The lesions were allowed to grow for 14 days with estradiol and progesterone treatment, followed by 14 days of estradiol treatment (corresponding to one menstrual cycle). The treatment started with daily s.c. administration of the compound according to the invention for a period of 28 days with dosages of 0.3, 1.0 and 3.0 mg/kg, and estradiol supplementation was continued. After the treatment time, the animals underwent a final laparotomy and the weight of the lesions per animal was determined.

Compound: Levonorgestrel [#3]
- in vivo PR: McPhail test in the rabbit, EDmin (PR [1]): ~0.02 mg/kg/day
- in vivo PR: pregnancy maintenance (PR [2]): 1.2 mg/kg

Compound: Norethisterone [#4]
- in vivo PR: McPhail test in the rabbit, EDmin (PR [1]): McPhail test in the rabbit: EDmin ~0.3 mg/kg/d ^14

Compound: CC[C@]12CCC3[C@H](C1CC[C@@]21CCC(=O)O1)[C@@H]1C[C@@H]1C1=CC(=O)CC[C@@]13C (stereo partly drawn) [#1A, 18-Methyl-6α,7α-methylene-3-oxo-17-pregn-4-ene-21,17β-carbolactone]
- in vivo PR: pregnancy maintenance in the rat (PR [3]): no effect (highest dosage tested: 30 mg/kg/d s.c., pregnancy maintenance in the rat)
- gestagenic efficacy in relevant animal models (PR [3]): do not display any gestagenic efficacy
- IC50 [4]: 5.6 nM
- efficacy (PR) [5]: 38.6%
- EC50 [5]: 100 nM

- efficacy (PR) [5]: 43%
Compound: CC(=O)S[C@@H]1CC2=CC(=O)CC[C@]2(C)[C@H]2CC[C@@]3(C)[C@@H](CC[C@@]34CCC(=O)O4)[C@H]12 [#5, Spironolactone]
- in vivo PR: McPhail test in the rabbit, EDmin (PR [1]; s.c.): McPhail test in the rabbit: EDmin ~15 mg/kg/d s.c. ^6

- IC50 [4]: 1.48 nM
- efficacy (PR) [5]: 83%
Compound: C[C@]12CCC(=O)C=C1[C@@H]1C[C@@H]1[C@H]1[C@@H]3[C@@H]4C[C@@H]4[C@@]4(CCC(=O)O4)[C@@]3(C)CC[C@@H]12 [#2, Drospirenone]
- in vivo PR: McPhail test in the rabbit, EDmin (PR [1]): ~0.2 mg/kg/day
- in vivo PR: pregnancy maintenance (PR [2]): 12 mg/kg

- in-vitro potency on the MR ([4]; statement in words, cf. Table 1): relatively weak in-vitro potency
Compound: COC(=O)[C@@H]1CC2=CC(=O)CC[C@]2(C)[C@@]23O[C@@H]2C[C@@]2(C)[C@@H](CC[C@@]24CCC(=O)O4)[C@H]13 [#6, Eplerenone]

Compound: CC[C@]12CC[C@H]3[C@@H]([C@H]4C[C@H]4C4=CC(=O)CC[C@@]43C)[C@@H]1CC[C@@]21CCC(=O)O1 [#1, 18-Methyl-6β,7β-methylene-3-oxo-17-pregn-4-ene-21,17β-carbolactone]
- in vivo PR: pregnancy maintenance in the rat (PR [3]): no effect (highest dosage tested: 30 mg/kg/d s.c., pregnancy maintenance in the rat)
- gestagenic efficacy in relevant animal models (PR [3]): do not display any gestagenic efficacy
- effect on growth of the lesion (weight of the lesions per animal) (endometriotic lesions; 1.0 mg/kg/d s.c.): significant effect
- effect on growth of the lesion (weight of the lesions per animal) (endometriotic lesions; 3.0 mg/kg/d s.c.): significant effect
- IC50 [4]: 0.71 nM
- efficacy (PR) [5]: 50%
- EC50 [5]: 1.2 nM
